Assay results as given in USRE47689E1, “Compounds for treating spinal muscular atrophy” (PTC Therapeutics, Inc., priority 2011, dated 2019).

Columns and labels:
Smn protein = Smn protein assay in cultured cells (SMN HTRF); format: cell-based, human; settings: 48 hours; for maximum fold (Fold) increase of Smn protein: SMA patient fibroblast cells, 7-point concentration data, fold increase relative to vehicle control (SMN HTRF); for EC1.5x (concentration giving 1.5-fold Smn protein increase): SMA Type 1 patient fibroblast cells (GM03813), 7-point concentration curve, SMN HTRF, concentration producing 1.5 times Smn protein vs DMSO vehicle control, read-out: EC1.5x for Smn protein expression
Outline: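 Smn in SMA fibroblast lysates, measured by anti-SMN HTRF after 48 h compound exposure; EC1.5x from fold change over vehicle.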

[1] = system: SMN2 minigene (full length SMN2 minigene mRNA containing SMN2 exon 7); experiment: SMN2 minigene mRNA splicing RT-qPCR assay in cultured cells; format: cell-based, human; settings: Homo sapiens, HEK293-H; HEK293H cells stably transfected with SMN2-A minigene; 24 hours; 7-point concentration curve; 1.5-fold relative to vehicle-treated cells; read-out: EC1.5x for production of full length SMN2 mRNA
Outline: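 Lysates → one-step RT-qPCR, minigene-specific primers (0.4 μM final) + GAPDH multiplex, 40 cycles. FL/GAPDH vs DMSO; EC1.5x, star-binned.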

| SMILES | melting point [°C] | maximum fold (Fold) increase of Smn protein (Smn protein) | EC (1.5-fold) [1] [µM] | EC1.5x (concentration giving 1.5-fold Smn protein increase) (Smn protein) [nM] |
| --- | --- | --- | --- | --- |
| Cc1cn2cc(-c3cc4ccc(N5CCN(C(C)(C)C)CC5)cc4oc3=O)nc2c(C)n1 [Compound 812, 7-(4-tert-butylpiperazin-1-yl)-3-(6,8-dimethylimidazo[1,2-a]pyrazin-2-yl)-2H-chromen-2-one] | 270 to 272 | *** (fold increase between >1.35 and ≤1.5) | < 0.1 |  |
| Cc1cn2cc(-c3cc4ccc(N5CCN(C6CCC6)CC5)cc4oc3=O)cc2c(C)n1 [Compound 814, 7-(4-cyclobutylpiperazin-1-yl)-3-(1,3-dimethylpyrrolo[1,2-a]pyrazin-7-yl)-2H-chromen-2-one] | 217 to 220 | ***** (fold increase >1.65) | < 0.1 | < 300 |
| CCCN1CCN(c2ccc3cc(-c4cc5cc(C)nc(C)c5o4)c(=O)oc3c2)CC1 [Compound 815, 3-(5,7-dimethylfuro[2,3-c]pyridin-2-yl)-7-(4-propylpiperazin-1-yl)-2H-chromen-2-one] | 259 to 262 | **** (fold increase between >1.5 and ≤1.65) | < 0.1 | < 300 |
| Cc1cn2cc(-c3cc4ccc(C5CCN(C6CCC6)CC5)cc4oc3=O)nc2c(C)n1 [Compound 821, 7-(1-cyclobutylpiperidin-4-yl)-3-(6,8-dimethylimidazo[1,2-a]pyrazin-2-yl)-2H-chromen-2-one] | 200 to 205 | ***** (fold increase >1.65) | < 0.1 | < 300 |
| Cc1cn2cc(-c3cc4ccc(N5CCN(C6CCC6)CC5)cc4oc3=O)nc2c(C)n1 [Compound 822, 7-(4-cyclobutylpiperazin-1-yl)-3-(6,8-dimethylimidazo[1,2-a]pyrazin-2-yl)-2H-chromen-2-one] | 260 to 262 | **** (fold increase between >1.5 and ≤1.65) | < 0.1 | < 300 |
| Cc1cn2cc(-c3cc4ccc(N5CCN(C6COC6)CC5)cc4oc3=O)nc2c(C)n1 [Compound 823, 3-(6,8-dimethylimidazo[1,2-a]pyrazin-2-yl)-7-[4-(oxetan-3-yl)piperazin-1-yl]-2H-chromen-2-one] | 230 to 235 | **** (fold increase between >1.5 and ≤1.65) | 0.3 to 1 | 1000 to 3000 |
| Cc1cn2cc(-c3cc4ccc(C5CCN(C)CC5)cc4oc3=O)ccc2n1 [Compound 826, 3-(2-methylimidazo[1,2-a]pyridin-6-yl)-7-(1-methylpiperidin-4-yl)-2H-chromen-2-one] | 204 to 206 | ***** (fold increase >1.65) | < 0.1 | < 300 |
| CCN1CCC(c2ccc3cc(-c4ccc5nc(C)cn5c4)c(=O)oc3c2)CC1 [Compound 827, 7-(1-ethylpiperidin-4-yl)-3-(2-methylimidazo[1,2-a]pyridin-6-yl)-2H-chromen-2-one] | 268 to 270 | ***** (fold increase >1.65) | < 0.1 | < 300 |
| Cc1cn2cc(-c3cc4ccc(C5CCN(C6COC6)CC5)cc4oc3=O)ccc2n1 [Compound 828, 3-(2-methylimidazo[1,2-a]pyridin-6-yl)-7-[1-(oxetan-3-yl)piperidin-4-yl]-2H-chromen-2-one] | 198 to 200 | ***** (fold increase >1.65) | 0.1 to 0.3 | 300 to 1000 |
| Cc1cn2cc(-c3cc4ccc(C5CCN(CCO)CC5)cc4oc3=O)ccc2n1 [Compound 829, 7-[1-(2-hydroxyethyl)piperidin-4-yl]-3-(2-methylimidazo[1,2-a]pyridin-6-yl)-2H-chromen-2-one] | 222 to 226 | ***** (fold increase >1.65) | < 0.1 | < 300 |
| CCc1nc(C)cn2cc(-c3cc4ccc(N5CCN(C)CC5)cc4oc3=O)nc12 [Compound 830, 3-(8-ethyl-6-methylimidazo[1,2-a]pyrazin-2-yl)-7-(4-methylpiperazin-1-yl)-2H-chromen-2-one] | 210 to 215 | ***** (fold increase >1.65) | < 0.1 | < 300 |
| Cc1cn2cc(-c3cc4ccc(N5CCN(C(C)C)CC5)cc4oc3=O)nc2cn1 [Compound 833, 3-(6-methylimidazo[1,2-a]pyrazin-2-yl)-7-[4-(propan-2-yl)piperazin-1-yl]-2H-chromen-2-one] | 275 to 280 | ***** (fold increase >1.65) | < 0.1 | < 300 |
| Cc1cn2cc(-c3cc4ccc(C5CCNCC5)cc4oc3=O)cnc2n1 [Compound 834, 3-(2-methylimidazo[1,2-a]pyrimidin-6-yl)-7-(piperidin-4-yl)-2H-chromen-2-one] | 280 to 281 | ***** (fold increase >1.65) | < 0.1 | < 300 |
| Cc1cn2cc(-c3cc4ccc(C5CCN(C)CC5)cc4oc3=O)cnc2n1 [Compound 835, 3-(2-methylimidazo[1,2-a]pyrimidin-6-yl)-7-(1-methylpiperidin-4-yl)-2H-chromen-2-one] | 300 to 302 | ***** (fold increase >1.65) | 0.3 to 1 | 300 to 1000 |
| CCN1CCC(c2ccc3cc(-c4cnc5nc(C)cn5c4)c(=O)oc3c2)CC1 [Compound 836, 7-(1-ethylpiperidin-4-yl)-3-(2-methylimidazo[1,2-a]pyrimidin-6-yl)-2H-chromen-2-one] | 288 to 290 | ***** (fold increase >1.65) | 0.3 to 1 | 300 to 1000 |
| Cc1cn2cc(-c3cc4ccc(N5CCN(CCO)CC5)cc4oc3=O)nc2cn1 [Compound 837, 7-[4-(2-hydroxyethyl)piperazin-1-yl]-3-(6-methylimidazo[1,2-a]pyrazin-2-yl)-2H-chromen-2-one] | 246 to 252 | ***** (fold increase >1.65) | < 0.1 | < 300 |
| Cc1cn2cc(-c3cc4ccc(N5CCN(C6CCC6)CC5)cc4oc3=O)nc2cn1 [Compound 838, 7-(4-cyclobutylpiperazin-1-yl)-3-(6-methylimidazo[1,2-a]pyrazin-2-yl)-2H-chromen-2-one] | 268 to 274 | ***** (fold increase >1.65) | < 0.1 | < 300 |
| Cc1cn2cc(-c3cc4ccc(N5CCN(C6COC6)CC5)cc4oc3=O)nc2cn1 [Compound 839, 3-(6-methylimidazo[1,2-a]pyrazin-2-yl)-7-[4-(oxetan-3-yl)piperazin-1-yl]-2H-chromen-2-one] | 273 to 276 | **** (fold increase between >1.5 and ≤1.65) | 0.1 to 0.3 | 300 to 1000 |
